PubChem BioAssay AID256 (DTP/NCI, 2004)
Several values for one entry are separate records, joined by “and”; a condition that tells them apart may be missing. Identical values can stand only once. Inconclusive results and toxic doses are left out.

Test system: CD2F1 mice, L1210 leukemia ip, survival T/C
Assay: NCI In Vivo Anticancer Drug Screen. Data for tumor model L1210 Leukemia (intraperitoneal) in CD2F1 (CDF1) mice
Details: higher = longer survival
Procedure, shortened: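 Ratio T/C, where T is the treated-group value and C the vehicle-dosed control value, from mice implanted with a transplantable tumor.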

[1] = endpoint: mean survival time, dose: 100.0 mg/kg/injection, schedule: Q04DX002 (ip), vehicle: saline with Tween-80
[2] = endpoint: mean survival time, dose: 200.0 mg/kg/injection, schedule: Q04DX002 (ip), vehicle: saline with Tween-80
[3] = endpoint: mean survival time, dose: 400.0 mg/kg/injection, schedule: Q04DX002 (ip), vehicle: saline with Tween-80
[4] = endpoint: mean survival time, dose: 25.0 mg/kg/injection, schedule: Q04DX002 (ip), vehicle: saline with Tween-80
[5] = endpoint: mean survival time, dose: 50.0 mg/kg/injection, schedule: Q04DX002 (ip), vehicle: saline with Tween-80
[6] = endpoint: mean survival time, dose: 100.0 mg/kg/injection, schedule: Q01DX001 (ip), vehicle: saline with Tween-80
[7] = endpoint: mean survival time, dose: 200.0 mg/kg/injection, schedule: Q01DX001 (ip), vehicle: saline with Tween-80
[8] = endpoint: mean survival time, dose: 400.0 mg/kg/injection, schedule: Q01DX001 (ip), vehicle: saline with Tween-80
[9] = endpoint: mean survival time, dose: 100.0 mg/kg/injection, schedule: Q01DX009 (ip), vehicle: saline with Tween-80
[10] = endpoint: mean survival time, dose: 200.0 mg/kg/injection, schedule: Q01DX009 (ip), vehicle: saline with Tween-80
[11] = endpoint: mean survival time, dose: 400.0 mg/kg/injection, schedule: Q01DX009 (ip), vehicle: saline with Tween-80
[12] = endpoint: mean survival time, dose: 100.0 mg/kg/injection, schedule: Q01DX009 (ip), vehicle: Klucel (hydroxypropylcellulose) (HPC)
[13] = endpoint: mean survival time, dose: 50.0 mg/kg/injection, schedule: Q01DX001 (ip), vehicle: saline with Tween-80
[14] = endpoint: mean survival time, dose: 100.0 mg/kg/injection, schedule: Q04DX003 (ip), vehicle: saline with Tween-80
[15] = endpoint: mean survival time, dose: 200.0 mg/kg/injection, schedule: Q04DX003 (ip), vehicle: saline with Tween-80
[16] = endpoint: mean survival time, dose: 400.0 mg/kg/injection, schedule: Q04DX003 (ip), vehicle: saline with Tween-80
[17] = endpoint: mean survival time, dose: 12.5 mg/kg/injection, schedule: Q01DX001 (ip), vehicle: saline with Tween-80
[18] = endpoint: mean survival time, dose: 25.0 mg/kg/injection, schedule: Q01DX001 (ip), vehicle: saline with Tween-80
[19] = endpoint: mean survival time, dose: 50.0 mg/kg/injection, schedule: Q01DX009 (ip), vehicle: saline with Tween-80

For COC(=O)c1ccccc1NC(=O)Nc1cccc(OC)c1, the T/C (endpoint: mean survival time, dose: 100.0 mg/kg/injection, schedule: Q01DX001 (ip), vehicle: Klucel (hydroxypropylcellulose) (HPC)) was 95 % of control, the T/C (endpoint: mean survival time, dose: 200.0 mg/kg/injection, schedule: Q01DX001 (ip), vehicle: Klucel (hydroxypropylcellulose) (HPC)) was 101 % of control and the T/C (endpoint: mean survival time, dose: 400.0 mg/kg/injection, schedule: Q01DX001 (ip), vehicle: Klucel (hydroxypropylcellulose) (HPC)) was 95 % of control.

CCOC(=O)c1c(C)c2c(n1C)CC/C(=C\N1CCCCC1)C2=O was tested, and the T/C [1] was 111 % of control, the T/C [2] was 118 % of control and the T/C [3] was 96 % of control.

In the case of CC(=O)Nc1ccncn1, the T/C [4] is reported as 97 % of control and the T/C [5] is reported as 100 % of control.

In the case of NC(=S)c1ncnc2c1ncn2C1OC(CO)C(O)C1O (stereo not drawn), the T/C (endpoint: median survival time, dose: 8.75 mg/kg/injection, schedule: Q01DX005 (ip), vehicle: water) is reported as 103 % of control, the T/C (endpoint: median survival time, dose: 17.5 mg/kg/injection, schedule: Q01DX005 (ip), vehicle: water) is reported as 103 % of control and 107 % of control and the T/C (endpoint: median survival time, dose: 35.0 mg/kg/injection, schedule: Q01DX005 (ip), vehicle: water) is reported as 120 % of control and 111 % of control. The T/C (endpoint: median survival time, dose: 70.0 mg/kg/injection, schedule: Q01DX005 (ip), vehicle: water) was 122 % of control and 124 % of control.

For COc1cc(C=C(c2ccc(N(C)C)cc2)c2ccc(N(C)C)cc2)c(OC)c2ccccc12, the T/C [6] was 102 % of control, the T/C [1] was 90 % of control and the T/C [7] was 101 % of control. For the same molecule, the T/C [2] was 87 % of control and the T/C [8] was 90 % of control.

With COC1OC(COS(=O)(=O)c2ccc(C)cc2)C(O)C(O)C1O (stereo not drawn) the T/C [6] was 100 % of control, the T/C [9] was 96 % of control and the T/C [7] was 95 % of control. The T/C [10] was 91 % of control, the T/C [8] was 94 % of control and the T/C [11] was 94 % of control.

For COc1ccc(NC(=O)CCl)cc1, the T/C (endpoint: mean survival time, dose: 25.0 mg/kg/injection, schedule: Q01DX009 (ip), vehicle: Klucel (hydroxypropylcellulose) (HPC)) was 96 % of control and 98 % of control, the T/C (endpoint: mean survival time, dose: 50.0 mg/kg/injection, schedule: Q01DX009 (ip), vehicle: Klucel (hydroxypropylcellulose) (HPC)) was 96 % of control and 98 % of control and the T/C [12] was 96 % of control and 104 % of control.

For O=C1NC(=NC2CCCCC2)C2(CCNCC2)N1c1ccccc1, the T/C [13] was 102 % of control, the T/C [6] was 106 % of control and the T/C [7] was 104 % of control.

CC(C)(C)C1CC[N-]CC1.CC(C)(C)C1CC[N-]CC1.[Cl][Pt+2][Cl] was tested, and the T/C (endpoint: mean survival time, dose: 75.0 mg/kg/injection, schedule: Q04DX002 (ip), vehicle: saline with Tween-80) was 95 % of control, the T/C (endpoint: mean survival time, dose: 150.0 mg/kg/injection, schedule: Q04DX002 (ip), vehicle: saline with Tween-80) was 98 % of control and the T/C (endpoint: mean survival time, dose: 300.0 mg/kg/injection, schedule: Q04DX002 (ip), vehicle: saline with Tween-80) was 107 % of control.

For OC1C2CC3C(C2)C13 (stereo not drawn), the T/C [9] was 102 % of control and 106 % of control, the T/C [10] was 96 % of control and the T/C [11] was 98 % of control and 102 % of control.

Cc1c(CNc2ccc(C(=O)NC(CC(=O)O)CC(=O)O)cc2)ccc2nc(N)nc(N)c12 was tested, and the T/C (endpoint: mean survival time, dose: 0.25 mg/kg/injection, schedule: Q01DX009 (ip), vehicle: saline) was 171 % of control, the T/C (endpoint: mean survival time, dose: 0.5 mg/kg/injection, schedule: Q01DX009 (ip), vehicle: saline) was 118 % of control and the T/C (endpoint: mean survival time, dose: 1.0 mg/kg/injection, schedule: Q01DX009 (ip), vehicle: saline) was 104 % of control.

COc1ccc(C(=Nc2ccc(C)cc2)c2ccc([N+](=O)[O-])cc2)cc1 was tested, and the T/C [9] was 94 % of control, the T/C [14] was 98 % of control and the T/C [10] was 98 % of control. The T/C [15] was 98 % of control, the T/C [11] was 96 % of control and the T/C [16] was 98 % of control.

With CCCCCCC[CH2][Sn]1([CH2]CCCCCCC)[O]CC2OC(n3cc(C)c(=O)[nH]c3=O)CC2[O]1 (stereo not drawn) the T/C (endpoint: mean survival time, dose: 12.5 mg/kg/injection, schedule: Q01DX005 (ip), vehicle: other) was 94 % of control, the T/C (endpoint: mean survival time, dose: 25.0 mg/kg/injection, schedule: Q01DX005 (ip), vehicle: other) was 100 % of control and the T/C (endpoint: mean survival time, dose: 50.0 mg/kg/injection, schedule: Q01DX005 (ip), vehicle: other) was 114 % of control.

With CC(=O)c1ccc2c(c1)-c1ccc(C(C)=O)cc1-2 the T/C [14] was 86 % of control, the T/C [15] was 86 % of control and the T/C [16] was 90 % of control.

With [Cu+2].[NH-]CC(=O)O.[NH-]CC(=O)O the T/C (endpoint: mean survival time, dose: 5.0 mg/kg/injection, schedule: Q01DX009 (ip), vehicle: saline) was 98 % of control and the T/C (endpoint: mean survival time, dose: 10.0 mg/kg/injection, schedule: Q01DX009 (ip), vehicle: saline) was 104 % of control.

In the case of CCOC(=O)CN1C(=O)CN=C(c2ccccn2)c2cc(Cl)ccc21, the T/C [14] is reported as 102 % of control, the T/C [15] is reported as 89 % of control and the T/C [16] is reported as 89 % of control.

In the case of O=C(c1ccccc1)C(CC[P+](c1ccccc1)(c1ccccc1)c1ccccc1)(OBr)c1ccccc1 (stereo not drawn), the T/C (endpoint: mean survival time, dose: 6.25 mg/kg/injection, schedule: Q01DX001 (ip), vehicle: saline with Tween-80) is reported as 112 % of control, the T/C [17] is reported as 97 % of control and the T/C [18] is reported as 101 % of control.

In the case of CS(=O)(=O)CC#N, the T/C (endpoint: mean survival time, dose: 6.25 mg/kg/injection, schedule: Q04DX002 (ip), vehicle: saline with Tween-80) is reported as 91 % of control and 109 % of control, the T/C [17] is reported as 93 % of control and the T/C (endpoint: mean survival time, dose: 12.5 mg/kg/injection, schedule: Q01DX009 (ip), vehicle: saline) is reported as 92 % of control. For the same molecule, the T/C (endpoint: mean survival time, dose: 12.5 mg/kg/injection, schedule: Q04DX002 (ip), vehicle: saline with Tween-80) was 91 % of control and 102 % of control, the T/C (endpoint: mean survival time, dose: 12.5 mg/kg/injection, schedule: Q04DX003 (ip), vehicle: saline with Tween-80) was 97 % of control and the T/C [18] was 106 % of control. For the same molecule, the T/C (endpoint: mean survival time, dose: 25.0 mg/kg/injection, schedule: Q01DX009 (ip), vehicle: saline) was 92 % of control and 98 % of control, the T/C [4] was 94 % of control and 101 % of control and the T/C (endpoint: mean survival time, dose: 25.0 mg/kg/injection, schedule: Q04DX002 (ip), vehicle: saline) was 99 % of control and 103 % of control. For the same molecule, the T/C (endpoint: mean survival time, dose: 25.0 mg/kg/injection, schedule: Q04DX003 (ip), vehicle: saline with Tween-80) was 97 % of control, the T/C [13] was 100 % of control and the T/C (endpoint: mean survival time, dose: 50.0 mg/kg/injection, schedule: Q04DX002 (ip), vehicle: saline) was 100 % of control.

O=C(NNC(=O)c1c(F)c(F)c(F)c(F)c1F)c1c(F)c(F)c(F)c(F)c1F was tested, and the T/C [9] was 97 % of control and the T/C [10] was 97 % of control.

CCCc1cc(OC)ccc1O was tested, and the T/C [9] was 96 % of control, the T/C [14] was 96 % of control and the T/C [10] was 100 % of control. For the same molecule, the T/C [15] was 94 % of control, the T/C [11] was 100 % of control and the T/C [16] was 103 % of control.

For c1cnc2c(c1)CCCC2, the T/C (endpoint: mean survival time, dose: 12.5 mg/kg/injection, schedule: Q01DX009 (ip), vehicle: saline with Tween-80) was 95 % of control, the T/C (endpoint: mean survival time, dose: 25.0 mg/kg/injection, schedule: Q01DX009 (ip), vehicle: saline with Tween-80) was 91 % of control and the T/C [19] was 87 % of control.

For O=c1[nH]c2ccccc2nc1Cl, the T/C [4] was 94 % of control, the T/C [5] was 94 % of control and the T/C [1] was 94 % of control. For the same molecule, the T/C [2] was 90 % of control and the T/C [3] was 90 % of control.

With O/N=C(/CN1CCOCC1)c1ccc(Cl)cc1 the T/C (endpoint: mean survival time, dose: 50.0 mg/kg/injection, schedule: Q01DX009 (ip), vehicle: saline) was 100 % of control, the T/C (endpoint: mean survival time, dose: 100.0 mg/kg/injection, schedule: Q01DX009 (ip), vehicle: saline) was 97 % of control and the T/C (endpoint: mean survival time, dose: 200.0 mg/kg/injection, schedule: Q01DX009 (ip), vehicle: saline) was 103 % of control.

For O=C(Nc1ccc2cc(S(=O)(=O)O)ccc2c1)c1ccc(N=Nc2c(S(=O)(=O)O)cc3cc(S(=O)(=O)O)cc(NC(=O)c4ccccc4)c3c2O)cc1, the T/C [19] was 96 % of control and the T/C [9] was 101 % of control.

O=C(N/N=C\c1c(Cl)cccc1Cl)c1ccccc1 was tested, and the T/C [12] was 94 % of control, the T/C (endpoint: mean survival time, dose: 100.0 mg/kg/injection, schedule: Q04DX003 (ip), vehicle: Klucel (hydroxypropylcellulose) (HPC)) was 100 % of control and the T/C (endpoint: mean survival time, dose: 200.0 mg/kg/injection, schedule: Q01DX009 (ip), vehicle: Klucel (hydroxypropylcellulose) (HPC)) was 96 % of control. For the same molecule, the T/C (endpoint: mean survival time, dose: 200.0 mg/kg/injection, schedule: Q04DX003 (ip), vehicle: Klucel (hydroxypropylcellulose) (HPC)) was 100 % of control and the T/C (endpoint: mean survival time, dose: 400.0 mg/kg/injection, schedule: Q04DX003 (ip), vehicle: Klucel (hydroxypropylcellulose) (HPC)) was 96 % of control.

CCOC(=O)CCl was tested, and the T/C (endpoint: mean survival time, dose: 100.0 mg/kg/injection, schedule: Q04DX003 (ip), vehicle: other) was 95 % of control and the T/C (endpoint: mean survival time, dose: 200.0 mg/kg/injection, schedule: Q04DX003 (ip), vehicle: other) was 90 % of control.
